The values below come from ChEMBL document CHEMBL1201862, “PubChem BioAssay data set” (2004).

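Tested at 5 concentrations; 48 h exposure; 96-well plates; endpoints linearly interpolated, else capped at highest concentration. GI50: concentration for 50% inhibition of growth.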 The source made the active and inactive calls. No stated cut-off is given here; in the data, active = GI50 up to about 1.1 µM and inactive = higher.

What all share (test): growth of human tumour cells (NCI), 48 h
Assay [1] relates to MCF7.
The test system of assay [2] is SF-295.
In assay [3] the test system is NCI-H460.
Assay [4] relates to T47D.
In assay [5] the test system is K562.
Assay [6] concerns SK-MEL-5.
Assay [7] concerns MOLT-4.
In assay [8] the test system is DU-145.
The test system of assay [9] is MDA-N.
Assay [10] has as its system IGROV-1.
Assay [11] relates to EKVX.
Assay [12] has as its system M14.
Assay [13] concerns LOX IMVI.
The subject of assay [14] is HCT-116.
Assay [15] has as its system HOP-92.
The subject of assay [16] is OVCAR-3.
Assay [17] deals with BT-549.
Assay [18] relates to HT-29.
Assay [19] relates to CAKI-1.
Assay [20] has as its system UO-31.

As for `c1ccc(COc2nc3cc(C45CC6CC(CC(C6)C4)C5)ccc3[nH]2)cc1`, the GI50 in [1] is 4.7 µM (inactive); in [2], 6.7 µM (inactive); in assay [3], 9.2 µM (inactive); in assay [4] it was 2.83 µM (inactive); in assay [5], 1.19 µM (inactive); in assay [6] it was 5.53 µM (inactive). Also, the GI50 is 3.35 µM (inactive) in assay [7]; 20.1 µM (inactive) in assay [8]; 11.9 µM (inactive) in assay [9]; 13.6 µM (inactive) in [10]; 13.5 µM (inactive) in assay [11]; 17.2 µM (inactive) in [12]. Besides, the GI50 in [13] is 12.1 µM (inactive); in assay [14], 9.08 µM (inactive); in assay [15], 7.29 µM (inactive); in assay [16], 22.9 µM (inactive); in assay [17], 19.8 µM (inactive); in assay [18] it was 3.53 µM (inactive). Also, the GI50 in assay [19] was 39.7 µM (inactive); in assay [20], 6.22 µM (inactive).

In the case of `Cc1c(F)c(N)c2c(=O)cc(-c3ccc(N)c(F)c3)oc2c1F` [AMINOFLAVONE], the GI50 was 0.0156 µM (active) in assay [1]; 15.6 µM (inactive) in assay [2]; 0.199 µM (active) in [3]; 0.313 µM (active) in [4]; 0.279 µM (active) in assay [5]; 20.4 µM (inactive) in assay [6]. Besides, the GI50 is 46.9 µM (inactive) in assay [7]; 26.3 µM (inactive) in [8]; 29.4 µM (inactive) in [9]; 0.0723 µM (active) in [10]; 13.7 µM (inactive) in [11]; 57.3 µM (inactive) in assay [12]. Also, the GI50 is 21.3 µM (inactive) in assay [13]; 12.1 µM (inactive) in assay [14]; 23 µM (inactive) in [15]; 0.458 µM (active) in assay [16]; 17.5 µM (inactive) in assay [17]; 33.7 µM (inactive) in assay [18]. Moreover, the figures for the GI50 in assay [19] and in assay [20] were < 0.0131 µM (active) and 5.33 µM (inactive), respectively.
